MIC data for 21 compounds are collected here from patent publication US10392422B2, “Macrocyclic broad spectrum antibiotics” (priority 2014, dated 2019).

In brackets after ≈: the same amount, converted by molar mass. Where two headings read alike, the source gives them in different places. A value given as a limit tells only on which side of the number the result lay.

What all share (test): MIC, broth micro-dilution technique (CLSI)
Background: Broth dilution looks for growth in wells or tubes with falling amounts of substance.

For one test, the system named is MRSA COL (NRS100). It counts as cell-based, Staphylococcus aureus. Particulars: Staphylococcus aureus, 22 h, read-out: MIC (μg/mL) (COL). A digest of the protocol:
(§1)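 CLSI broth microdilution in cation-adjusted Mueller Hinton broth with 0.002% v/v Tween-80. Compounds were serially 2-fold diluted over 10 concentrations from 64 μg/ml, or from 4 μg/mL in a modified protocol; inoculum at final OD600 0.0005, incubated 35° C for 22 hours.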

The subject of test [1] is Methicillin Resistant Staphylococcus aureus strain USA 300 (NRS384). It counts as cell-based. Particulars: Staphylococcus aureus, 22 h, read-out: MIC (μg/mL) S. aureus. A digest of the protocol: as §1
Test [2] relates to Escherichia coli MC4100 harboring the IMP4213. It counts as cell-based. The following applies: Escherichia coli, 22 h, 35° C., 22 hours. A digest of the protocol: as §1
The mark [3] stands for this setting: read-out: MIC (μg/mL) E. coli, Table 1 protocol: serial 2-fold dilutions starting from 64 μg/ml.
Setting [4] is: Table 2 modified protocol: serial 2-fold dilutions starting from 4 μg/mL, 35° C., 22 hours.
The mark [5] stands for this setting: read-out: MIC (μg/mL) E. coli, Table 2 modified protocol: serial 2-fold dilutions starting from 4 μg/mL.
[6] abbreviates: Table 1 protocol: serial 2-fold dilutions starting from 64 μg/ml, 35° C., 22 hours.

On to `C[C@@H]1NC(=O)[C@@H](N(C)C(=O)[C@H](CCCCN)NC(=O)c2ccc(-c3ccc(Cl)cc3)cc2)c2ccc(OCCN)c(c2)-c2cc(ccc2OCCN)C[C@@H](C(=O)O)NC1=O` [Compound 289], for which the results for the MIC (in the test on MRSA COL (NRS100); in test [1]; in test [2] (setting [3])) were 0.5 µg/mL (≈ 0.594 µM), 2 µg/mL (≈ 2.37 µM) and 0.5 µg/mL (≈ 0.594 µM), respectively.

On to `CCCCc1ccc(-c2ccc(C(=O)N[C@@H](CCCN)C(=O)N(C)[C@@H]3C(=O)N[C@@H](C)C(=O)N[C@H](C(=O)NCC(=O)O)Cc4ccc(OCCN)c(c4)-c4cc3ccc4OCCN)cc2)cc1` [Compound 334], for which the MIC in the test with MRSA COL (NRS100) (setting [4]) worked out at 0.38 µg/mL (≈ 0.419 µM); in test [1] (setting [4]), 1 µg/mL (≈ 1.1 µM); in test [2] (setting [5]) it was 0.13 µg/mL (≈ 0.143 µM).

As for `C[C@H](NC(=O)[C@@H]1Cc2ccc(O)c(c2)-c2cc(ccc2O)[C@H](N(C)C(=O)[C@H](CCCCN)NC(=O)c2ccc(-c3ccc(Cl)cc3)cc2)C(=O)N[C@@H](C)C(=O)N1)C(=O)CCc1cc[nH]n1` [Compound 130], the MIC in the test with MRSA COL (NRS100) (setting [6]) was 8 µg/mL (≈ 8.84 µM); in test [1] (setting [6]), 16 µg/mL (≈ 17.7 µM); in test [2] (setting [3]) it was more than 64 µg/mL.

Consider `C[C@@H]1NC(=O)[C@@H](N(C)C(=O)[C@H](CCCCN)NC(=O)c2ccc(-c3ccc(Cl)cc3)cc2)c2ccc(OCCN)c(c2)-c2cc(ccc2O)C[C@@H](C(=O)O)NC1=O` [Compound 312], for which the MIC in the test with MRSA COL (NRS100) came out at 3 µg/mL (≈ 3.75 µM); in test [1], 24 µg/mL (≈ 30 µM); in test [2] (setting [3]) it was 3 µg/mL (≈ 3.75 µM).

Regarding `C[C@@H]1NC(=O)[C@@H](N(C)C(=O)[C@H](CCCCN)NC(=O)c2ccc(-c3ccc(Cl)cc3)cc2)c2ccc(O)c(c2)-c2cc(ccc2O)C[C@@H](C(=O)NCC(=O)c2nnn[nH]2)NC1=O` [Compound 244], the MIC with MRSA COL (NRS100) (setting [4]) was 4 µg/mL (≈ 4.62 µM); in test [1] (setting [4]), more than 4 µg/mL; in test [2] (setting [5]) it was more than 4 µg/mL.

For the compound `CCCCCCCCCNCCCC(=O)N[C@@H](CCCCN)C(=O)N(C)[C@@H]1C(=O)N[C@@H](C)C(=O)N[C@H](C(=O)N[C@@H](C)C(C)=O)Cc2ccc(O)c(c2)-c2cc1ccc2O` [Compound 111], the MIC was 4 µg/mL (≈ 4.87 µM) in the test on MRSA COL (NRS100) (setting [6]), 23 µg/mL (≈ 28 µM) in test [1] (setting [6]) and more than 64 µg/mL in test [2] (setting [3]).

As for `C[C@H](NC(=O)[C@@H]1Cc2ccc(O)c(c2)-c2cc(ccc2O)[C@H](N(C)C(=O)[C@H](CCCCN)NC(=O)c2ccc(-c3ccc(Cl)cc3)cc2)C(=O)N[C@@H](C)C(=O)N1)C(=O)CNC=O` [Compound 240], the MIC with MRSA COL (NRS100) (setting [6]) came to 2 µg/mL (≈ 2.3 µM); in test [1] (setting [6]) it was 4 µg/mL (≈ 4.61 µM); in test [2] (setting [3]), 48 µg/mL (≈ 55.3 µM).

`C[C@H](NC(=O)[C@@H]1Cc2ccc(O)c(c2)-c2cc(ccc2O)[C@H](N(C)C(=O)[C@H](CCCCN)NC(=O)c2ccc(-c3ccc(Cl)cc3)cc2)C(=O)N[C@@H](C)C(=O)N1)C(=O)CC(N)=O` [Compound 189]: the figures for the MIC (with MRSA COL (NRS100) (setting [6]); in test [1] (setting [6]); in test [2] (setting [3])) were 2 µg/mL (≈ 2.3 µM), 5.7 µg/mL (≈ 6.56 µM) and 32 µg/mL (≈ 36.8 µM), respectively.

Regarding `CCCCCCCCCCCCCC(=O)N[C@@H](CN)C(=O)N(C)[C@@H]1C(=O)N[C@@H](C)C(=O)N[C@H](C(=O)O)Cc2ccc(OCCN)c(c2)-c2cc1ccc2OCCN` [Compound 298], the results for the MIC (in the test on MRSA COL (NRS100); in test [1]; in test [2] (setting [5])) were 0.063 µg/mL (≈ 0.0791 µM), 0.38 µg/mL (≈ 0.477 µM) and 0.031 µg/mL (≈ 0.0389 µM), respectively.

For the compound `CC(=O)[C@H](C)NC(=O)[C@@H]1Cc2ccc(O)c(c2)-c2cc(ccc2OCCN)[C@H](N(C)C(=O)[C@H](CCCCN)NC(=O)c2ccc(-c3ccc(Cl)cc3)cc2)C(=O)N[C@@H](C)C(=O)N1` [Compound 119], the MIC in the test on MRSA COL (NRS100) was 0.5 µg/mL (≈ 0.576 µM); in test [1], 1 µg/mL (≈ 1.15 µM); in test [2] (setting [3]), 5.3 µg/mL (≈ 6.1 µM).

Take `CCCCCCCCCCNCCC(=O)N[C@@H](CCCCN)C(=O)N(C)[C@@H]1C(=O)N[C@@H](C)C(=O)N[C@H](C(=O)N[C@@H](C)C(=O)N(C)[C@H]2CCNC2=O)Cc2ccc(O)c(c2)-c2cc1ccc2OCCN` [Compound 187]: the MIC in the test on MRSA COL (NRS100) (setting [6]) amounted to 0.5 µg/mL (≈ 0.519 µM); in test [1] (setting [6]), 3.7 µg/mL (≈ 3.84 µM); in test [2] (setting [3]), 23 µg/mL (≈ 23.9 µM).

In the case of `C[C@@H]1NC(=O)[C@@H](N(C)C(=O)[C@H](CCCCN)NC(=O)c2ccc(-c3cc(Cl)cc(Cl)c3)cc2)c2ccc(OCCN)c(c2)-c2cc(ccc2OCCN)C[C@@H](C(=O)O)NC1=O` [Compound 280], the MIC turned out to be 0.38 µg/mL (≈ 0.433 µM) with MRSA COL (NRS100), 0.75 µg/mL (≈ 0.855 µM) in test [1] and 0.25 µg/mL (≈ 0.285 µM) in test [2] (setting [5]).

Take `CCCCc1ccc(-c2ccc(C(=O)N[C@@H](CCCN)C(=O)N(C)[C@@H]3C(=O)N[C@@H](C)C(=O)N[C@H](C(=O)NS(=O)(=O)C(F)(F)F)Cc4ccc(OCCN)c(c4)-c4cc3ccc4OCCN)cc2)cc1` [Compound 338]: the MIC in the test on MRSA COL (NRS100) (setting [4]) turned out to be 2.5 µg/mL (≈ 2.55 µM); in test [1] (setting [4]), 3 µg/mL (≈ 3.06 µM); in test [2] (setting [5]), 0.63 µg/mL (≈ 0.642 µM).

In the case of `CCCCCCCCc1ccc(C(=O)N[C@@H](CCCN)C(=O)N(C)[C@@H]2C(=O)N[C@@H](C)C(=O)N[C@H](C(=O)N[C@@H](C)B3O[C@@H]4C[C@@H]5C[C@@H](C5(C)C)[C@]4(C)O3)Cc3ccc(OCCN)c(c3)-c3cc2ccc3OCCN)c(C)c1` [Compound 321], the MIC with MRSA COL (NRS100) was determined as 0.063 µg/mL (≈ 0.06 µM); in test [1], 0.094 µg/mL (≈ 0.0896 µM); in test [2] (setting [3]) it was 0.063 µg/mL (≈ 0.06 µM).

For the compound `C[C@@H]1NC(=O)[C@@H](N(C)C(=O)[C@H](CCCCN)NC(=O)c2ccc(-c3ccc(Cl)cc3)cc2)c2ccc(O)c(c2)-c2cc(ccc2O)C[C@@H](C(=O)N[C@@H](C)/C=C/S(C)(=O)=O)NC1=O` [Compound 144], the MIC in the test with MRSA COL (NRS100) was 2 µg/mL (≈ 2.25 µM); in test [1] it was 8 µg/mL (≈ 9.01 µM); in test [2] (setting [3]) it was 32 µg/mL (≈ 36.1 µM).

Regarding `C[C@@H]1NC(=O)[C@@H](N(C)C(=O)[C@H](CCCCN)NC(=O)c2ccc(-c3ccc(Cl)cc3)cc2)c2ccc(O)c(c2)-c2cc(ccc2O)C[C@@H](C(=O)NCC(=O)CF)NC1=O` [Compound 253], the MIC in the test on MRSA COL (NRS100) (setting [4]) is 4 µg/mL (≈ 4.82 µM); in test [1] (setting [4]), more than 4 µg/mL; in test [2] (setting [5]) it was more than 4 µg/mL.

Regarding `C[C@@H]1NC(=O)[C@@H](N(C)C(=O)[C@H](CCCCN)NC(=O)c2ccc(-c3ccc(Cl)cc3)cc2)c2ccc(O)c(c2)-c2cc(ccc2O)C[C@@H](C(=O)N[C@@H](C)C(=O)c2ncc[nH]2)NC1=O` [Compound 232], the MIC in the test with MRSA COL (NRS100) (setting [6]) was 1 µg/mL (≈ 1.14 µM); in test [1] (setting [6]), 4 µg/mL (≈ 4.56 µM); in test [2] (setting [3]), 8 µg/mL (≈ 9.12 µM).

For `CC(=O)[C@H](C)NC(=O)[C@@H]1Cc2ccc(OCC(=O)O)c(c2)-c2cc(ccc2OCCN)[C@H](N(C)C(=O)[C@H](CCCCN)NC(=O)c2ccc(-c3ccc(Cl)cc3)cc2)C(=O)N[C@@H](C)C(=O)N1` [Compound 208], the MIC in the test with MRSA COL (NRS100) (setting [6]) turned out to be 6 µg/mL (≈ 6.48 µM); in test [1] (setting [6]), 23 µg/mL (≈ 24.8 µM); in test [2] (setting [3]), 16 µg/mL (≈ 17.3 µM).

Regarding `CC(=O)[C@H](C)NC(=O)[C@@H]1Cc2ccc(O)c(c2)-c2cc(cc(C#CCN)c2OCCN)[C@H](N(C)C(=O)[C@H](CCCCN)NC(=O)c2ccc(-c3ccc(Cl)cc3)cc2)C(=O)N[C@@H](C)C(=O)N1` [Compound 226], the MIC with MRSA COL (NRS100) (setting [6]) is 0.25 µg/mL (≈ 0.271 µM); in test [1] (setting [6]), 4 µg/mL (≈ 4.34 µM); in test [2] (setting [3]) it was 4 µg/mL (≈ 4.34 µM).

Consider `CCCCCCCCc1ccc(C(=O)N[C@@H](CCCN)C(=O)N(C)[C@@H]2C(=O)N[C@@H](C)C(=O)N[C@H](C(=O)N[C@@H](C)B3O[C@@H]4C[C@@H]5C[C@@H](C5(C)C)[C@]4(C)O3)Cc3ccc(OC)c(c3)-c3cc2ccc3OC)cc1` [Compound 319], for which the MIC in the test with MRSA COL (NRS100) was 1 µg/mL (≈ 1.02 µM); in test [1], 2 µg/mL (≈ 2.05 µM); in test [2] (setting [3]) it was 0.75 µg/mL (≈ 0.768 µM).

Regarding `C[C@@H]1NC(=O)[C@@H](N(C)C(=O)[C@H](CCCCN)NC(=O)c2ccc(-c3ccc(Cl)cc3)cc2)c2cc(C#N)c(O)c(c2)-c2cc(ccc2O)C[C@@H](C(=O)O)NC1=O` [Compound 290], the MIC in the test on MRSA COL (NRS100) is 32 µg/mL (≈ 41 µM); in test [1], 64 µg/mL (≈ 81.9 µM); in test [2] (setting [3]) it was 32 µg/mL (≈ 41 µM).
